Results on 7 molecules are retold here after paper PMC9333195, “Discovery of 2-Phenylquinoline-4-Carboxylic Acid Derivatives as Novel Histone Deacetylase Inhibitors” (Frontiers in Chemistry, 2022).

Data set [1] has as its system Hela nucleus extract containing a mixture of HDAC isoforms. In words: In vitro HDAC inhibitory assay, HeLa cell nuclear extract screening at 2 µM. In kind it is biochemical. As to conditions: 2.0 µM compound, mean of three experiments. Here is the method:
The HDAC enzyme inhibitory activities of synthesized compounds were evaluated against Hela nucleus extract containing a mixture of HDAC isoforms. Percentage inhibitory rate (PIR) was calculated to determine the activity of tested compounds (Table 1).
All HDAC enzymes were purchased from BPS Bioscience. […] The reaction was terminated by adding 100 μl of imaging agent containing trypsin and trichostatin A (TSA). After standing for 20 min, the fluorescence intensity was measured at the excitation and emission wavelengths of 360 and 460 nm with a microplate reader. The inhibition rate was calculated from the fluorescence intensity readings of the test wells relative to the control wells, and the IC50 curve and value were determined by GraphPad Prism 6.0 software.

The test system of data set [2] is K562 cells. In words: CCK-8 antiproliferative assay, K562. As to conditions: Homo sapiens; for inhibition at 2 µM: K562, read-out: K562 percentage inhibitory rate; for IC50: K562, 72 h, read-out: Antiproliferative IC50 K562. A general note: Formazan colour is commonly taken as a measure of viable cells.
Procedure: (§1) The proliferation of cancer cells was tested by CCK-8 assay. Briefly, cells were seeded in a 96-well plate with about 5 × 10^3 cells in each well. In the K652 cell screening, cells were treated with 2.0 μM of tested compounds. […] The light absorbance at 450 nm was measured by using an Opsys microplate reader (Dynex Technologies, Chantilly, VA, United States).
Data set [3] relates to K562 cells. As to the kind of experiment: Cell cycle analysis by flow cytometry (PI staining). In kind it is cell-based. As to conditions: 24 h; for G2/M phase ratio of K562 cells: control 3.44%, third value in Figure 3; for phase of induced cell cycle arrest: K562 cells, 1 and 2 µM. Here is the method: Deregulation of the cell cycle divided into G0/G1 phase, S phase, and G2/M phase is one of the most frequent alterations during cancer development. Thus, the cell cycle analysis is usually performed in the anticancer evaluation.
After treatment, cells were collected and fixed with 70% pre-cold ethanol in PBS and stored at −20°C overnight. […] Finally, DNA content was measured by flow cytometry (FACSAriaIII, Becton Dickinson, United States). The data was analyzed and fitted by ModFit software.

The subject of another data set is U266. In words: CCK-8 antiproliferative assay, U266. As to conditions: Homo sapiens, U-266, 72 h, read-out: Antiproliferative IC50 U266.
A further data set deals with U937. As to the kind of experiment: CCK-8 antiproliferative assay, U937. As to conditions: Homo sapiens, U-937, 72 h, read-out: Antiproliferative IC50 U937.
In the next data set the test system is Fadu. In words: CCK-8 antiproliferative assay, Fadu. As to conditions: Homo sapiens, 72 h, read-out: Antiproliferative IC50 Fadu.
A further data set deals with A549. In words: CCK-8 antiproliferative assay, A549. As to conditions: Homo sapiens, A549, 72 h, read-out: Antiproliferative IC50 A549.
The test system of a further data set is MCF-7. As to the kind of experiment: CCK-8 antiproliferative assay, MCF-7. As to conditions: Homo sapiens, MCF7, 72 h, read-out: Antiproliferative IC50 MCF-7.
Another data set deals with A2780. In words: CCK-8 antiproliferative assay, A2780. As to conditions: Homo sapiens, A2780, 72 h, read-out: Antiproliferative IC50 A2780.
The next data set concerns HepG2. As to the kind of experiment: CCK-8 antiproliferative assay, HepG2. As to conditions: Homo sapiens, HepG2, 72 h, read-out: Antiproliferative IC50 HepG2.
The subject of the next data set is MDA-MB-231. In words: CCK-8 antiproliferative assay, MDA-MB-231. As to conditions: Homo sapiens, MDA-MB-231, 72 h, read-out: Antiproliferative IC50 MDA-MB-231.
The next data set deals with MDA-MB-468. In words: CCK-8 antiproliferative assay, MDA-MB-468. As to conditions: Homo sapiens, MDA-MB-468, 72 h, read-out: Antiproliferative IC50 MDA-MB-468.
The next data set concerns the target HDAC2 (Homo sapiens, UniProt Q92769). In words: In vitro HDAC inhibitory assay, recombinant HDAC2.
The next data set addresses HDAC3 (Homo sapiens, UniProt O15379). In words: In vitro HDAC inhibitory assay, recombinant HDAC3.
A further data set has as its target T1, HDAC6 (Homo sapiens, UniProt Q9UBN7).
T1 sequence (Q9UBN7 1-1215): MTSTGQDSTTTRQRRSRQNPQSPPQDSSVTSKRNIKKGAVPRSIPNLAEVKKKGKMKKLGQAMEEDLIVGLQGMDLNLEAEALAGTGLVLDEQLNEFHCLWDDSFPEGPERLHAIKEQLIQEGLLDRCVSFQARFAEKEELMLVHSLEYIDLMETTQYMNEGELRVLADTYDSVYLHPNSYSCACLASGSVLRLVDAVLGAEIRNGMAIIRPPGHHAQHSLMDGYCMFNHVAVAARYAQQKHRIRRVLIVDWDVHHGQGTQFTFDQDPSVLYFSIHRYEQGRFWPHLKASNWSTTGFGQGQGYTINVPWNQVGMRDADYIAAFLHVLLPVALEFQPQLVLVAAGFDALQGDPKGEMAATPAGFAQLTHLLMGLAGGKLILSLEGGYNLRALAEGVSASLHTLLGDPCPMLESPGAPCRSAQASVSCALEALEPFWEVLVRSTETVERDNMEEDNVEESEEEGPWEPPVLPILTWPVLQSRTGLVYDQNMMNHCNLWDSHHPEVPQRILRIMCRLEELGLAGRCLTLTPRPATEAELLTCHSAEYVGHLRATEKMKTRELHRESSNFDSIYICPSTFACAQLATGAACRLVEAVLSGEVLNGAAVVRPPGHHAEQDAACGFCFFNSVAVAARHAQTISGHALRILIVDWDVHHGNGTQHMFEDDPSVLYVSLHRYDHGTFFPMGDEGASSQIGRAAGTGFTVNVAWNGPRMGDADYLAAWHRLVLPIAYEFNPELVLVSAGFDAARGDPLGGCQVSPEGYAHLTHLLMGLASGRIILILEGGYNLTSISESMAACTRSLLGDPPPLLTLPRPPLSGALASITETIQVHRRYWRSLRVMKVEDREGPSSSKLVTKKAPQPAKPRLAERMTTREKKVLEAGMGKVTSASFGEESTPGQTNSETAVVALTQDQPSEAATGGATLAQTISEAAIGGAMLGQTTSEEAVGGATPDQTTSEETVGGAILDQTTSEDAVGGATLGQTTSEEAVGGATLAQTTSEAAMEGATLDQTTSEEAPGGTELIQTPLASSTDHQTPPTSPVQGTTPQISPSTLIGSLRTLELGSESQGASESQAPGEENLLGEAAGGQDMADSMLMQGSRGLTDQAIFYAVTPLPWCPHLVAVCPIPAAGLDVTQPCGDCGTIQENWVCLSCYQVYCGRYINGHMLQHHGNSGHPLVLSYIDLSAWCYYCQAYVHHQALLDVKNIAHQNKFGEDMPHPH
As to the kind of experiment: In vitro HDAC inhibitory assay, recombinant HDAC6.

In data set [4] the test system is K562 cells. As to the kind of experiment: Cell apoptosis analysis by flow cytometry (Annexin V-BV421 / 7-AAD). As to conditions: 24 h, control 1.14%. A general note: A flow cytometer gives signals particle by particle.
Procedure: Cells were incubated with Annexin V-BV421(Becton Dickinson, United States) and 7-AAD (Becton Dickinson, United States) double labeling for 30 min in the dark at room temperature and measured by flow cytometry (FACSAriaIII, Becton Dickinson, United States). The data was analyzed by using Flowjo-V10 software.
Another data set concerns the target HDAC1 (Homo sapiens, UniProt Q13547). As to the kind of experiment: In vitro HDAC inhibitory assay, recombinant HDAC1.

Chain of HDAC3 (O15379 whole entry): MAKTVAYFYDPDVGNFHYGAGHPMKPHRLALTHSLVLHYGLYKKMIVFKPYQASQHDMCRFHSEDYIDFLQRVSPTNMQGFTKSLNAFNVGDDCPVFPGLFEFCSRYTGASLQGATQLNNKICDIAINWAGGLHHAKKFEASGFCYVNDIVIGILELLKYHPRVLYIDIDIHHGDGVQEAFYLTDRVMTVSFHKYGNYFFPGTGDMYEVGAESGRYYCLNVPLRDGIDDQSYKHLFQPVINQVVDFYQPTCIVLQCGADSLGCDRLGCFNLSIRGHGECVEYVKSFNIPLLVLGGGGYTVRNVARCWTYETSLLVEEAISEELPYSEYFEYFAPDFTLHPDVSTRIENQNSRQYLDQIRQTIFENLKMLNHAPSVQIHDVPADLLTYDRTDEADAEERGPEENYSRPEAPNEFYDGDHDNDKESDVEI
Chain of HDAC3 (Q9Y618 395-489 partner limits assumed): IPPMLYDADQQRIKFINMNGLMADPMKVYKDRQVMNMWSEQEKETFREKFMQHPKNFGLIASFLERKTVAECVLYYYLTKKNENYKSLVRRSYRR
Chain of HDAC2 (Q92769 whole entry): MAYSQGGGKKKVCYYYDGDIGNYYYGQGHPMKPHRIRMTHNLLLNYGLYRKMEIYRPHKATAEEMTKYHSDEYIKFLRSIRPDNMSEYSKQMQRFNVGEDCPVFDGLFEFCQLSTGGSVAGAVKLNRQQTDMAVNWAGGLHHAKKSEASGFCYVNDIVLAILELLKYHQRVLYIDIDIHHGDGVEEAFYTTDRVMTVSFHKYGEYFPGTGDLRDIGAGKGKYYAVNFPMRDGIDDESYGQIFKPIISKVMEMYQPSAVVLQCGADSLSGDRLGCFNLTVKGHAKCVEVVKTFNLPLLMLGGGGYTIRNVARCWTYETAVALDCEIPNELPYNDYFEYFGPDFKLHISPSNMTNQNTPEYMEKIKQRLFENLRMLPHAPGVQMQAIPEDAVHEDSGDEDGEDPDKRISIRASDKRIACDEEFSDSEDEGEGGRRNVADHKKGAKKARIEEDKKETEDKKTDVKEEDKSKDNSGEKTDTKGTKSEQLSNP
Chain of HDAC1 (Q13547 whole entry): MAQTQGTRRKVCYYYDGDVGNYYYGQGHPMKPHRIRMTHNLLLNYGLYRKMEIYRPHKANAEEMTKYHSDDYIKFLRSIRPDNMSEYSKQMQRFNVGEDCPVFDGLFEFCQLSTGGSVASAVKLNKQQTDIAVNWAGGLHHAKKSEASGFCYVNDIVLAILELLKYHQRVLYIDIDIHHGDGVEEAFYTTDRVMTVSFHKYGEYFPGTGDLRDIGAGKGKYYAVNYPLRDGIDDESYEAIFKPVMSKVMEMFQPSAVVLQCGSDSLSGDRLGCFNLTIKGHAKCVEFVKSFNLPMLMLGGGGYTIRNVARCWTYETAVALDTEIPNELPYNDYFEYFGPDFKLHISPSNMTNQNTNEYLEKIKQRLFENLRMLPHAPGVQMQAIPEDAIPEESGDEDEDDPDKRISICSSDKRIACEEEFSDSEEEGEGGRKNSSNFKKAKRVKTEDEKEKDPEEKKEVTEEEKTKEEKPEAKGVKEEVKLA
Procedure for A2780: (§2) The proliferation of cancer cells was tested by CCK-8 assay. Briefly, cells were seeded in a 96-well plate with about 5 × 10^3 cells in each well. […] The light absorbance at 450 nm was measured by using an Opsys microplate reader (Dynex Technologies, Chantilly, VA, United States).
Procedure for A549: as §2
Procedure for Fadu: as §1
Procedure for HepG2: as §1
Procedure for MCF-7: as §2
Procedure for MDA-MB-231: as §1
Procedure for MDA-MB-468: as §2
Procedure for U266: as §2
Procedure for U937: as §1

Molecule `O=C(NO)c1ccc(N2CCN(C(=O)c3cc(-c4ccc(NC(=O)c5ccc(F)cc5F)cc4)nc4ccccc34)CC2)cc1` [Compound D24, 2,4-Difluoro-N-(4-(4-(4-(4-(Hydroxycarbamoyl)Phenyl)Piperazine-1-Carbonyl)Quinolin-2-yl)Phenyl)Benzamide] showed a melting point of 175.3 to 176.3 °C. Besides, in [1], the “HDACs percentage inhibitory rate (PIR)” value stood at 66.16 ± 1.57%. The inhibition at 2 µM in the data set with K562 cells [2] is 31.1 ± 0.54%.
`O=C(NO)c1ccc(N2CCN(C(=O)c3cc(-c4ccc(NC(=O)c5cccc(F)c5)cc4)nc4ccccc34)CC2)cc1` [Compound D26, 3-Fluoro-N-(4-(4-(4-(4-(Hydroxycarbamoyl)Phenyl)Piperazine-1-Carbonyl)Quinolin-2-yl)Phenyl)Benzamide] gave a melting point of 232.6 to 232.9 °C. In addition, the “HDACs percentage inhibitory rate (PIR)” value in data set [1] was 49.99 ± 0.32%. Moreover, the inhibition at 2 µM with K562 cells [2] worked out at 43.1 ± 0.64%.
Regarding `O=C(NO)c1ccc(N2CCN(C(=O)c3cc(-c4cc(F)ccc4F)nc4ccccc34)CC2)cc1` [Compound D27, 4-(4-(2-(2,5-Difluorophenyl)Quinoline-4-Carbonyl)Piperazin-1-yl)-N-Hydroxybenzamide], the melting point fell in the range of 196.9 to 198 °C. In addition, the “HDACs percentage inhibitory rate (PIR)” value in [1] is on record as 59.30 ± 0.74%. Further, in the data set on K562 cells [2], the inhibition at 2 µM came out at 63.79 ± 0.13%.
In the case of `O=C(NO)c1ccc(N2CCN(C(=O)c3cc(-c4ccc(-c5ccccc5)cc4)nc4ccccc34)CC2)cc1` [Compound D28, 4-(4-(2-([1,1′-Biphenyl]-4-yl)Quinoline-4-Carbonyl)Piperazin-1-yl)-N-Hydroxybenzamide], in data set [1], the “HDACs percentage inhibitory rate (PIR)” value is 68.00 ± 2.49%. In addition, the “G2/M phase ratio of K562 cells” value was found to be 5.95% in the data set with K562 cells [3] (1 μM) and 32.57% in the data set with K562 cells [3] (2 μM). For the same molecule, the “phase of induced cell cycle arrest” value in the data set on K562 cells [3] was “G2/M phase”. The IC50 was 1.02 ± 0.01 µM in the data set with K562 cells [2]; 1.08 ± 0.02 µM in the data set on U266; 1.11 ± 0.03 µM in the data set on U937; 3.22 ± 0.14 µM in the data set on Fadu; 2.83 ± 0.17 µM with A549; 5.66 ± 0.26 µM with MCF-7. The IC50 with A2780 was 3.86 ± 0.29 µM; with HepG2, 2.16 ± 0.13 µM; in the data set on MDA-MB-231 it was 4.15 ± 0.22 µM; in the data set on MDA-MB-468, 2.89 ± 0.13 µM; on HDAC2 it was greater than 1000 µM; at HDAC3, 24.5 ± 1.24 µM. For the same molecule, on HDAC6, the IC50 was greater than 1000 µM. Also, the inhibition at 2 µM with K562 cells [2] was 71.9 ± 2.32%. For the same molecule, the “apoptotic cell proportion (apoptotic rate)” value in the data set on K562 cells [4] (K562, 1 μM) was determined as 10.10%; in the data set on K562 cells [4] (K562, 2 μM) it was 15.53%; with K562 cells [4] (K562, 4 μM), 27.92%.
`CCCNNC(=O)c1ccc(N2CCN(C(=O)c3cc(-c4ccc(-c5ccccc5)cc4)nc4ccccc34)CC2)cc1` [Compound D29, 4-(4-(2-([1,1′-Biphenyl]-4-yl)Quinoline-4-Carbonyl)Piperazin-1-yl)-N′-Propylbenzohydrazide] displayed a melting point of 223.3 to 224.2 °C. The “HDACs percentage inhibitory rate (PIR)” value in data set [1] was 62.14 ± 2.11%. In the data set with K562 cells [2], the concentration for half-maximal inhibition (IC50) was 5.27 ± 0.14 µM and the inhibition at 2 µM is 62.4 ± 3.87%. Besides, the half-inhibitory concentration (IC50) in the data set on U266 is 2.87 ± 0.11 µM. For the same molecule, the IC50 in the data set with U937 was determined as 4.22 ± 0.08 µM. In the data set on Fadu, the concentration for half-maximal inhibition (IC50) is greater than 50 µM. In the data set with A549, the IC50 is greater than 50 µM. For the same molecule, the IC50 in the data set on MCF-7 came to 12.6 ± 0.97 µM. Moreover, the half-maximal inhibitory concentration (IC50) with A2780 is greater than 50 µM. Further, the IC50 in the data set on HepG2 is greater than 50 µM. In the data set with MDA-MB-231, the IC50 was greater than 50 µM. In addition, in the data set on MDA-MB-468, the IC50 was greater than 50 µM. In addition, the IC50 on HDAC1 worked out at 32.6 ± 1.97 µM. Also, the IC50 at HDAC2 amounted to 184 ± 4.32 µM. Also, on HDAC3, the IC50 came to 0.477 ± 0.01 µM. The IC50 on HDAC6 was greater than 1000 µM.
`CCCCNNC(=O)c1ccc(N2CCN(C(=O)c3cc(-c4ccc(-c5ccccc5)cc4)nc4ccccc34)CC2)cc1` [Compound D30, 4-(4-(2-([1,1′-Biphenyl]-4-yl)Quinoline-4-Carbonyl)Piperazin-1-yl)-N′-Butylbenzohydrazide] had a melting point of 225.3 to 227.3 °C. The “HDACs percentage inhibitory rate (PIR)” value in data set [1] came out at 69.35 ± 3.44%. Further, in the data set with K562 cells [2], the 50% inhibitory concentration (IC50) was 7.66 ± 0.25 µM and the inhibition at 2 µM turned out to be 65.8 ± 2.95%. Besides, the IC50 in the data set on U266 stood at 3.68 ± 0.16 µM. Also, in the data set with U937, the IC50 is 5.87 ± 0.24 µM. Further, the IC50 in the data set on Fadu was greater than 50 µM. In the data set with A549, the IC50 was greater than 50 µM. Further, the concentration for half-maximal inhibition (IC50) in the data set on MCF-7 turned out to be 18.8 ± 1.22 µM. In the data set with A2780, the half-inhibitory concentration (IC50) was greater than 50 µM. In the data set on HepG2, the IC50 is greater than 50 µM. For the same molecule, in the data set with MDA-MB-231, the IC50 is greater than 50 µM. In the data set on MDA-MB-468, the concentration for half-maximal inhibition (IC50) was greater than 50 µM. On HDAC1, the half-maximal inhibitory concentration (IC50) was 1.43 ± 0.02 µM. For the same molecule, the IC50 at HDAC2 is 8.13 ± 0.26 µM. The IC50 on HDAC3 stood at 0.1 ± 0.003 µM. In addition, the IC50 at HDAC6 was greater than 1000 µM.
As for `O=C(CCCCCCC(=O)Nc1ccccc1)NO` [SAHA, Vorinostat, reference compound], in the data set with K562 cells [3], the “phase of induced cell cycle arrest” value was “G0/G1 phase”. The half-inhibitory concentration (IC50) in the data set on K562 cells [2] was determined as 1.55 ± 0.02 µM; with U937, 1.68 ± 0.03 µM; in the data set with Fadu it was 2.17 ± 0.92 µM; in the data set on HepG2 it was 1.87 ± 0.11 µM. Besides, the “apoptotic cell proportion (apoptotic rate)” value with K562 cells [4] (K562, 1 μM) worked out at 1.39%; in the data set with K562 cells [4] (K562, 2 μM), 3.36%; with K562 cells [4] (K562, 4 μM), 19.75%.

Usually melting point stands for the temperature, or range, at which the solid turns liquid. A word on the IC50: it is the concentration that gives 50% inhibition.
